Reference: patent publication US20250268884A1, “Deuterated Domperidone for Treating Gastroparesis” (CinDome Pharma, Inc., priority 2022, published 2025)

Legend:
[1] = test system: adults with idiopathic or diabetic gastroparesis; conditions: 10 mg BID, Cohort 1, ITT
Excerpt: Gastric emptying may be measured by the gastric emptying breath test (GEBT). The GEBT is known in the art. Succinctly, the GEBT is a nonradioactive stable isotope breath test used in the art to diagnose or monitor gastroparesis. In this test, the ratio of exhaled ^13CO2/^12CO2 is used to determine the rate of gastric emptying after consumption of a standardized, ^13C-enriched meal. In some embodiments, the ^13C-enriched meal is ^13C-Spirulina platensis. In some examples, the test includes consumption of a standardized, ^13C-enriched meal after an 8-hour fast. See, e.g., the Cairn Gastric Emptying Breath Test (GEBT) Administration Guide at https://cairndiagnostics.com/wp-content/uploads/2019/05/Cairn-GEBT-How-To-Guide-updated-07May2019.pdf, which is hereby incorporated by reference. Breath samples are obtained one or more times prior to consumption of the ^13C-enriched meal and then one or more times after meal consumption. The breath samples are then measured using, e.g., a gas isotope ratio mass spectrometer. […]
Subjects were Evaluated as Follows: • Days −28 to −11: Screening procedures were performed. The ANMS GCSI-DD questionnaire was completed daily for at least 14 days prior to randomization (Day 1); • Days −10 to −3: The ANMS GCSI-DD questionnaire was completed daily. A GEBT was performed on a single day within this window, with breath samples obtained twice prior to consumption of a standardized, carbon-13 (^13C)-enriched meal and then at 45, 90, 120, 150, 180, and 240 minutes after meal consumption after an 8-hour fast. […] On Day 14 (±2 days), the PAGI-SYM and Clinical Grading Assessment questionnaires were completed prior to the final dose of study drug. • A GEBT was administered 30 minutes after study drug administration on Day 14 (±2 days). Breath samples were obtained twice prior to ^13C-enriched meal consumption and then at 45, 90, 120, 150, 180, and 240 minutes after meal consumption after an 8-hour fast. […] Clinical Grading Assessment Scales were also performed.
The primary efficacy variable was the change from baseline in gastric emptying as measured by GEBT at Day 14.
The secondary efficacy variables were the following: • The change from baseline in gastric emptying as measured by GEBT T½ at Day 14; • The change from baseline in ANMS GCSI-DD total scores; and • The change from baseline in ANMS GCSI-DD subscale scores.

prolactin = experiment: Prolactin concentration (pharmacodynamic evaluation), Phase 2a; assay type: in vivo, human; conditions: Safety Population
Excerpt: Table 14 summarizes prolactin concentration and change from baseline by scheduled time point and treatment for the Safety Population.

Structure (SMILES): [2H]c1c([2H])c([2H])c2c([nH]c(=O)n2CCCN2CCC(n3c(=O)[nH]c4cc(Cl)ccc43)CC2)c1[2H] [Deudomperidone, 1-{3-[4-(5-chloro-2-oxo-2,3-dihydro-1H-1,3-benzodiazol-1-yl)piperidin-1yl]propyl}-2,3-dihydro(4,5,6,7-D4)-1H-1,3-benzodiazol-2-one]
- GEBT 45 minutes post meal consumption, Day 14, mean [1]: 10.74 kPCD
- GEBT 45 minutes post meal consumption, change from baseline to Day 14 [1]: 1.96 kPCD
- GEBT 45 minutes post meal consumption, percent change from baseline to Day 14 [1]: 89.31%
- GEBT 90 minutes post meal consumption, Day 14, mean [1]: 23.60 kPCD
- GEBT 90 minutes post meal consumption, change from baseline to Day 14 [1]: 3.37 kPCD
- GEBT 90 minutes post meal consumption, percent change from baseline to Day 14 [1]: 56.73%
- GEBT 120 minutes post meal consumption, Day 14, mean [1]: 32.68 kPCD
- GEBT 120 minutes post meal consumption, change from baseline to Day 14 [1]: 3.86 kPCD
- GEBT 120 minutes post meal consumption, percent change from baseline to Day 14 [1]: 40.17%
- GEBT 150 minutes post meal consumption, Day 14, mean [1]: 37.13 kPCD
- GEBT 150 minutes post meal consumption, change from baseline to Day 14 [1]: 1.25 kPCD
- GEBT 150 minutes post meal consumption, percent change from baseline to Day 14 [1]: 23.46%
- GEBT 180 minutes post meal consumption, Day 14, mean [1]: 40.96 kPCD
- GEBT 180 minutes post meal consumption, change from baseline to Day 14 [1]: 1.85 kPCD
- GEBT 180 minutes post meal consumption, percent change from baseline to Day 14 [1]: 20.31%
- GEBT 240 minutes post meal consumption, Day 14, mean [1]: 41.41 kPCD
- GEBT 240 minutes post meal consumption, change from baseline to Day 14 [1]: −0.79 kPCD
- GEBT 240 minutes post meal consumption, percent change from baseline to Day 14 [1]: 9.46%
- Prolactin, Day 3, mean (SD) (prolactin; 5 mg BID): 396.7 (185.83) mIU/L
- Prolactin, Day 7, mean (SD) (prolactin; 5 mg BID): 622.9 (317.61) mIU/L
- Prolactin, Day 10, mean (SD) (prolactin; 5 mg BID): 449.7 (147.64) mIU/L
- Prolactin, Day 14, mean (SD) (prolactin; 5 mg BID): 578.0 (205.82) mIU/L
- Prolactin, change from baseline to Day 3, mean (SD) (prolactin; 5 mg BID): 143.4 (124.58) mIU/L
- Prolactin, change from baseline to Day 7, mean (SD) (prolactin; 5 mg BID): 369.7 (263.19) mIU/L
- Prolactin, change from baseline to Day 10, mean (SD) (prolactin; 5 mg BID): 196.4 (99.96) mIU/L
- Prolactin, change from baseline to Day 14, mean (SD) (prolactin; 5 mg BID): 324.8 (187.12) mIU/L
- Prolactin, Day 3, mean (prolactin; 10 mg BID): 570.2 mIU/L
- Prolactin, Day 7, mean (prolactin; 10 mg BID): 640.0 mIU/L
- Prolactin, Day 10, mean (prolactin; 10 mg BID): 734.9 mIU/L
- Prolactin, Day 14, mean (prolactin; 10 mg BID): 774.2 mIU/L
- Prolactin, change from baseline to Day 3 (prolactin; 10 mg BID): 351.5 mIU/L
- Prolactin, change from baseline to Day 7 (prolactin; 10 mg BID): 421.2 mIU/L
- Prolactin, change from baseline to Day 10 (prolactin; 10 mg BID): 512.1 mIU/L
- Prolactin, change from baseline to Day 14 (prolactin; 10 mg BID): 555.5 mIU/L
- Prolactin, change from baseline to follow-up/early termination (prolactin; 10 mg BID, n = 2): −32.5 mIU/L
- Prolactin, follow-up/early termination, mean (prolactin; 10 mg BID, n = 2): 195.0 mIU/L
- Prolactin, Day 3, mean (prolactin; 20 mg QD): 830.5 mIU/L
- Prolactin, Day 7, mean (prolactin; 20 mg QD): 1219.5 mIU/L
- Prolactin, Day 10, mean (prolactin; 20 mg QD): 1264.1 mIU/L
- Prolactin, Day 14, mean (prolactin; 20 mg QD): 1251.9 mIU/L
- Prolactin, change from baseline to Day 3 (prolactin; 20 mg QD): 522.1 mIU/L
- Prolactin, change from baseline to Day 7 (prolactin; 20 mg QD): 911.1 mIU/L
- Prolactin, change from baseline to Day 10 (prolactin; 20 mg QD): 955.8 mIU/L
- Prolactin, change from baseline to Day 14 (prolactin; 20 mg QD): 943.6 mIU/L
